According to patent publication US7317115B2, “Mandelates salts of substituted tetracyclic tetrahydrofuran derivatives” (Janssen Pharmaceutica, N.V., priority 2001, dated 2008):
Entries after “also recorded” stand apart in the source; their conditions may differ. One block for each compound: values may come before it.

What was measured:
Type in all cases: physicochemical
[1] = Adsorption and desorption of water; settings: 25° C., different relative humidity
Description: The adsorption and desorption of water at 25° C. at different conditions of relative humidity is investigated on an amount of ±10 mg of each salt. The weight change as a function of relative humidity is registered.

[2] = Crystallographic stability (TGA, DSC, IR after storage); settings: for crystallographic stability: storage two weeks under different relative humidities; on IR: key: ~Ref: identical with reference
Description: The stability of the crystal structure of the salt is studied after storage of the compounds for a period of two weeks at room temperature (RT) under either 5%, 75% and 25° C./60% relative humidity (RH). The samples are analyzed with thermogravimetry (TGA), differential scanning calorimetry (DSC) and infrared spectroscopy (IR).

[3] = Chemical stability (HPLC and visual inspection after storage); settings: for HPLC Sum of impurities: in % (unit assumed); for chemical stability: storage 2, 4 and 8 weeks under different conditions
Description: In the chemical stability test program the salts are stored for periods of 2, 4 and 8 weeks under different conditions. These conditions are 40° C./75% RH, 50° C., daylight, RT/5% RH, RT/75% RH, 25° C./60% RH and artificial light. The mandelate salt and the ditoluoyltartrate salt are also stored 8 hours in 0.3 da ICH light. The compounds are analyzed after storage by HPLC and by visual inspection.

[4] = 0.3 da ICH light (2 weeks column; text: 8 hours)
[5] = listed as (+)ditoluoyltartrate salt

Appearance ([2]; 0 days): white | DSC Max ([2]; 0 days): 229.5 °C | DSC ΔH ([2]; 0 days): 141.1 J/g | TGA <100° C. ([2]; 0 days): 0.1% | crystallographic stability ([2]; listed as mandelic acid salt): crystallographic stable | Appearance ([2]; two weeks, 25° C./60% RH): white | DSC Max ([2]; two weeks, 25° C./60% RH): 229.1 °C | DSC ΔH ([2]; two weeks, 25° C./60% RH): 139.0 J/g | IR ([2]; two weeks, 25° C./60% RH): ~Ref | TGA <100° C. ([2]; two weeks, 25° C./60% RH): 0.1% | Appearance ([2]; two weeks, RT/75% RH): white | DSC Max ([2]; two weeks, RT/75% RH): 229.4 °C | DSC ΔH ([2]; two weeks, RT/75% RH): 137.6 J/g | IR ([2]; two weeks, RT/75% RH): ~Ref | TGA <100° C. ([2]; two weeks, RT/75% RH): 0.1% | Appearance ([2]; two weeks, RT/<5% RH): white | DSC Max ([2]; two weeks, RT/<5% RH): 229.1 °C | DSC ΔH ([2]; two weeks, RT/<5% RH): 140.2 J/g | IR ([2]; two weeks, RT/<5% RH): ~Ref | TGA <100° C. ([2]; two weeks, RT/<5% RH): 0.1% | Appearance [3, 4]: white | HPLC Sum of impurities [3, 4]: 1.70 | Appearance ([3]; 25° C./60% RH, 4 weeks): white | HPLC Sum of impurities ([3]; 25° C./60% RH, 4 weeks): 1.71 | Appearance ([3]; 25° C./60% RH, 8 weeks): white | HPLC Sum of impurities ([3]; 25° C./60% RH, 8 weeks): 1.69 | Appearance ([3]; 40° C./75% RH, 2 weeks): white | HPLC Sum of impurities ([3]; 40° C./75% RH, 2 weeks): 1.73 | Appearance ([3]; 40° C./75% RH, 4 weeks): white | HPLC Sum of impurities ([3]; 40° C./75% RH, 4 weeks): 1.73 | Appearance ([3]; 40° C./75% RH, 8 weeks): white | HPLC Sum of impurities ([3]; 40° C./75% RH, 8 weeks): 1.70 | Appearance ([3]; 50° C., 2 weeks): white | HPLC Sum of impurities ([3]; 50° C., 2 weeks): 1.74 | Appearance ([3]; 50° C., 4 weeks): white | HPLC Sum of impurities ([3]; 50° C., 4 weeks): 1.75 | Appearance ([3]; 50° C., 8 weeks): white | HPLC Sum of impurities ([3]; 50° C., 8 weeks): 1.70 | Appearance ([3]; Artificial light (2 weeks)): white | HPLC Sum of impurities ([3]; Artificial light (2 weeks)): 1.70 | Appearance ([3]; Daylight, 2 weeks): white | HPLC Sum of impurities ([3]; Daylight, 2 weeks): 1.73 | Appearance ([3]; Daylight, 4 weeks): white | HPLC Sum of impurities ([3]; Daylight, 4 weeks): 1.71 | Appearance ([3]; Daylight, 8 weeks): white | HPLC Sum of impurities ([3]; Daylight, 8 weeks): 1.72 | Appearance ([3]; RT/75% RH, 4 weeks): white | HPLC Sum of impurities ([3]; RT/75% RH, 4 weeks): 1.75 | Appearance ([3]; RT/75% RH, 8 weeks): white | HPLC Sum of impurities ([3]; RT/75% RH, 8 weeks): 1.76 | Appearance ([3]; RT/<5% RH, 4 weeks): white | HPLC Sum of impurities ([3]; RT/<5% RH, 4 weeks): 1.73 | Appearance ([3]; RT/<5% RH, 8 weeks): white | HPLC Sum of impurities ([3]; RT/<5% RH, 8 weeks): 1.72 | Appearance ([3]; Reference (2 weeks)): white | HPLC Sum of impurities ([3]; Reference (2 weeks)): 1.72
Compound: CNCC1CC2c3ccccc3Cc3ccc(F)cc3C2O1.O=C(O)C(O)c1ccccc1 (single isomer, unassigned) [Compound 1, B-(2α,3aα,12bβ)-11-fluoro-3,3a,8,12b-tetrahydro-N-methyl-2H-dibenzo-[3,4:6,7]cyclohepta[1,2-b]furan-2 methanamine]
water adsorption/desorption behaviour (weight change as a function of relative humidity) ([1]; listed as mandelate salt): stable towards moisture uptake over the whole range of humidity; also recorded: good adsorption/desorption profile | crystallographic stability ([2]; listed as mandelate salt): crystallographically and chemically stable | chemical stability ([3]; listed as mandelate salt): chemically stable in all investigated conditions; also recorded: crystallographically and chemically stable

Compound: B-(2α,3aα,12bβ)-11-fluoro-3,3a,8,12b-tetrahydro-N-methyl-2H-dibenzo-[3,4:6,7]cyclohepta[1,2-b]furan-2 methanamine [Citrate]
water adsorption/desorption behaviour (weight change as a function of relative humidity) ([1]; listed as citrate salt): hygroscopic and liquefies at high relative humidity | Appearance ([2]; 0 days): yellowish | DSC Max ([2]; 0 days): amorphous | crystallographic stability ([2]; listed as citrate salt): amorphous and liquefies at RT/75% RH | Appearance ([2]; two weeks, RT/75% RH): liquefied | Appearance ([3]; 40° C./75% RH, 2 weeks): liquefied | HPLC Sum of impurities ([3]; 40° C./75% RH, 2 weeks): 4.83 | Appearance ([3]; 40° C./75% RH, 4 weeks): liquefied | HPLC Sum of impurities ([3]; 40° C./75% RH, 4 weeks): 7.91 | Appearance ([3]; 40° C./75% RH, 8 weeks): liquefied | HPLC Sum of impurities ([3]; 40° C./75% RH, 8 weeks): 10.62 | Appearance ([3]; 50° C., 2 weeks): ochre- | HPLC Sum of impurities ([3]; 50° C., 2 weeks): 6.29 | Appearance ([3]; 50° C., 4 weeks): ochre- | HPLC Sum of impurities ([3]; 50° C., 4 weeks): 7.47 | Appearance ([3]; 50° C., 8 weeks): orange- | HPLC Sum of impurities ([3]; 50° C., 8 weeks): 9.07 | Appearance ([3]; Artificial light (2 weeks)): ochre- | HPLC Sum of impurities ([3]; Artificial light (2 weeks)): 8.99 | Appearance ([3]; Daylight, 2 weeks): ochre- | HPLC Sum of impurities ([3]; Daylight, 2 weeks): 5.81 | Appearance ([3]; Daylight, 4 weeks): ochre- | HPLC Sum of impurities ([3]; Daylight, 4 weeks): 5.99 | Appearance ([3]; Daylight, 8 weeks): orange- | HPLC Sum of impurities ([3]; Daylight, 8 weeks): 6.31 | Appearance ([3]; RT/75% RH, 4 weeks): liquefied | HPLC Sum of impurities ([3]; RT/75% RH, 4 weeks): 4.69 | Appearance ([3]; RT/75% RH, 8 weeks): liquefied | HPLC Sum of impurities ([3]; RT/75% RH, 8 weeks): 4.98 | Appearance ([3]; Reference (2 weeks)): yellow | HPLC Sum of impurities ([3]; Reference (2 weeks)): 4.76 | chemical stability ([3]; listed as citrate salt): shows degradation in all investigated conditions; also recorded: chemically not stable

Appearance ([2]; 0 days): white | DSC Max ([2]; 0 days): 173.7 °C | DSC ΔH ([2]; 0 days): 71.9 J/g | TGA <100° C. ([2]; 0 days): 0.2% | Appearance ([2]; two weeks, 25° C./60% RH): white | DSC Max ([2]; two weeks, 25° C./60% RH): 177.6 °C | DSC ΔH ([2]; two weeks, 25° C./60% RH): 74.7 J/g | IR ([2]; two weeks, 25° C./60% RH): ~Ref | TGA <100° C. ([2]; two weeks, 25° C./60% RH): 0.1% | Appearance ([2]; two weeks, RT/75% RH): white | DSC Max ([2]; two weeks, RT/75% RH): 178.6 °C | DSC ΔH ([2]; two weeks, RT/75% RH): 70.8 J/g | IR ([2]; two weeks, RT/75% RH): ~Ref | TGA <100° C. ([2]; two weeks, RT/75% RH): 0.2% | Appearance ([2]; two weeks, RT/<5% RH): white | DSC Max ([2]; two weeks, RT/<5% RH): 175.6 °C | DSC ΔH ([2]; two weeks, RT/<5% RH): 78.7 J/g | IR ([2]; two weeks, RT/<5% RH): ~Ref | TGA <100° C. ([2]; two weeks, RT/<5% RH): 0.3% | Appearance [3, 4]: white | HPLC Sum of impurities [3, 4]: 1.41 | Appearance ([3]; 40° C./75% RH, 2 weeks): white | HPLC Sum of impurities ([3]; 40° C./75% RH, 2 weeks): 0.98 | Appearance ([3]; 40° C./75% RH, 4 weeks): white | HPLC Sum of impurities ([3]; 40° C./75% RH, 4 weeks): 1.00 | Appearance ([3]; 40° C./75% RH, 8 weeks): white | HPLC Sum of impurities ([3]; 40° C./75% RH, 8 weeks): 1.09 | Appearance ([3]; 50° C., 2 weeks): white | HPLC Sum of impurities ([3]; 50° C., 2 weeks): 1.06 | Appearance ([3]; 50° C., 4 weeks): white | HPLC Sum of impurities ([3]; 50° C., 4 weeks): 1.22 | Appearance ([3]; 50° C., 8 weeks): white | HPLC Sum of impurities ([3]; 50° C., 8 weeks): 1.25 | Appearance ([3]; Artificial light (2 weeks)): white | HPLC Sum of impurities ([3]; Artificial light (2 weeks)): 1.57 | Appearance ([3]; Daylight, 2 weeks): white | HPLC Sum of impurities ([3]; Daylight, 2 weeks): 1.26 | Appearance ([3]; Daylight, 4 weeks): white | HPLC Sum of impurities ([3]; Daylight, 4 weeks): 1.65 | Appearance ([3]; Daylight, 8 weeks): white-yellow | HPLC Sum of impurities ([3]; Daylight, 8 weeks): 1.74 | Appearance ([3]; Reference (2 weeks)): white | HPLC Sum of impurities ([3]; Reference (2 weeks)): 1.01
Compound: B-(2α,3aα,12bβ)-11-fluoro-3,3a,8,12b-tetrahydro-N-methyl-2H-dibenzo-[3,4:6,7]cyclohepta[1,2-b]furan-2 methanamine [(+)ditoluoyltartrate]
water adsorption/desorption behaviour (weight change as a function of relative humidity) [1, 5]: less stable but the weight change as a function of the relative humidity is very small; also recorded: good adsorption desorption profile | crystallographic stability [2, 5]: crystallographic stable; also recorded: crystallographically stable | chemical stability [3, 5]: shows a sensitivity towards temperature and light
